Each block holds one compound with its values, some of them ahead of it.
What was measured:
[1] = molecular target: T1, 5-hydroxytryptamine receptor 3A (Cavia porcellus, UniProt O70212); experiment: Antagonist activity 5-HT3A receptor in guinea pig ileum assessed as inhibition of 2-methyl-5-HT induced response preincubated for 10 mins followed by agonist addition; details: read-out: pA2 (converted)
T1 sequence (O70212 whole entry): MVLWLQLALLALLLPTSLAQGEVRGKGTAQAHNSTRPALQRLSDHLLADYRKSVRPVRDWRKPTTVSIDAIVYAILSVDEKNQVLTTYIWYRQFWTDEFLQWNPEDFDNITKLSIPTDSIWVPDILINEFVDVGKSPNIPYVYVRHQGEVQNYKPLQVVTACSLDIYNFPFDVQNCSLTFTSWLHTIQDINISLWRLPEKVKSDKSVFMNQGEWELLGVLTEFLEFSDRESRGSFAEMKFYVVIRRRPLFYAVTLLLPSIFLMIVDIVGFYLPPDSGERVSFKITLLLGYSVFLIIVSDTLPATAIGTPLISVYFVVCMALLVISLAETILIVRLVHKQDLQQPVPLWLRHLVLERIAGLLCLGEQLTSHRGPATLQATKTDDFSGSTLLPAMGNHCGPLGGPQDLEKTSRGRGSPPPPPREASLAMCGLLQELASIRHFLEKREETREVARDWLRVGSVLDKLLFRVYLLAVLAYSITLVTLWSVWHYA

[2] = molecular target: Glycine receptor (Rattus norvegicus) (UniProt P22771+P24524+P07727+P20781); experiment: Positive allosteric modulation of OFA rat embryonic ventral spinal cord neuron glycine receptor assessed as potentiation of glycine-induced chloride current at 1 to 10 uM by whole cell patch-clamp method relative to 10 uM glycine; assay type: protein-complex assay
[3] = molecular target: T2, 5-hydroxytryptamine receptor 3A (Homo sapiens, UniProt P46098); experiment: Agonist activity at human […] receptor expressed in Xenopus laevis oocytes; assay type: cell-based
T2 sequence (P46098 whole entry): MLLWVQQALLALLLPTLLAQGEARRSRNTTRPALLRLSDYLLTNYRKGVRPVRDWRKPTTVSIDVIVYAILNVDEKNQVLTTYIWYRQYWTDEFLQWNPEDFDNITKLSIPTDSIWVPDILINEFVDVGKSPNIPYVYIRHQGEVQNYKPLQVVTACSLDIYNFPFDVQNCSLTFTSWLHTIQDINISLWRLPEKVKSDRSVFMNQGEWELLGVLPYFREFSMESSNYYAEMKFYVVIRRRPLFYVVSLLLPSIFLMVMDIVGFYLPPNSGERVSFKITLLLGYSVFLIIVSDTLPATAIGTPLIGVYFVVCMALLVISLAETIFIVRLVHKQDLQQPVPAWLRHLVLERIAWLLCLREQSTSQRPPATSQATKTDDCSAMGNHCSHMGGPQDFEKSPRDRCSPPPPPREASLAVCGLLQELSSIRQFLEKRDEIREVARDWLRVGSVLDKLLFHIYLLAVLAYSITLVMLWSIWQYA

[4] = molecular target: T3, Serotonin 3 (5-HT3) receptor (Homo sapiens, UniProt O95264+P46098); experiment: Agonist activity at human […] receptor expressed in Xenopus laevis oocytes; assay type: cell-based
T3 sequence (P46098 whole entry): T2 sequence (P46098 whole entry)
T3 sequence (O95264 whole entry): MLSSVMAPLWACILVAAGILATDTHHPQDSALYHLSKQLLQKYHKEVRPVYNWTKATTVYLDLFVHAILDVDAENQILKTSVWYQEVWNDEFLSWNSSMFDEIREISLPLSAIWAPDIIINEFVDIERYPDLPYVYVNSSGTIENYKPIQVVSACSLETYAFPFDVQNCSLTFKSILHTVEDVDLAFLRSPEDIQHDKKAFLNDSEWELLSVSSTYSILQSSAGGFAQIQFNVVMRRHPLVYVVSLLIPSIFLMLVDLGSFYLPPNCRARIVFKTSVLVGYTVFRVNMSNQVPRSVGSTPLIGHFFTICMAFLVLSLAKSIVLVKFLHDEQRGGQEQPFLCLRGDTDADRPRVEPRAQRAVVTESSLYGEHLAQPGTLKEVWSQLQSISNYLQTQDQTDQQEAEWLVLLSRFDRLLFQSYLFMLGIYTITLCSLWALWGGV

[5] = molecular target: Neuronal acetylcholine receptor; alpha3/beta2 (Homo sapiens) (UniProt P17787+P32297); experiment: Positive allosteric modulation of human alpha3beta2 nAChR expressed Xenopus oocytes at 3 uM relative to acetylcholine; assay type: protein-complex assay
[6] = molecular target: T2, 5-hydroxytryptamine receptor 3A; experiment: Inhibition of human 5-HT3A receptor expressed in […] cells after 30 mins by Fluo-4-AM dye based FLIPR assay; assay type: cell-based
[7] = molecular target: T3, Serotonin 3 (5-HT3) receptor; experiment: Inhibition of human 5-HT3AB receptor expressed in […] cells after 30 mins by Fluo-4-AM dye based FLIPR assay; assay type: cell-based
[8] = molecular target: 5-hydroxytryptamine receptor 3A/3C (Homo sapiens, UniProt P46098+Q8WXA8); experiment: Inhibition of human 5-HT3AC receptor expressed in […] cells after 30 mins by Fluo-4-AM dye based FLIPR assay; assay type: cell-based
[9] = molecular target: 5-hydroxytryptamine receptor 3A/3E (Homo sapiens, UniProt A5X5Y0+P46098); experiment: Inhibition of human 5-HT3AE receptor expressed in […] cells after 30 mins by Fluo-4-AM dye based FLIPR assay; assay type: cell-based
[10] = molecular target: T2, 5-hydroxytryptamine receptor 3A; experiment: Inhibition of recombinant human 5-HT3A receptor expressed in HEK293 cell membranes […] in presence of [3H]GR65630
[11] = molecular target: Neuronal acetylcholine receptor subunit alpha-7 (Rattus norvegicus, UniProt Q05941); experiment: Agonist activity at rat brain membrane alpha7 nAChR
[12] = molecular target: GABA-A receptor alpha-1/beta-3 (Homo sapiens) (UniProt P14867+P28472); experiment: Positive allosteric modulation of recombinant human GABAA receptor alpha1beta3 expressed in Xenopus oocytes assessed as potentiation of GABA induced chloride current response relative to GABA; assay type: cell-based
[13] = molecular target: Gamma-aminobutyric acid receptor subunit alpha-2/beta-3 (Homo sapiens) (UniProt P28472+P47869); experiment: Positive allosteric modulation of recombinant human GABAA receptor alpha2beta3 expressed in Xenopus oocytes assessed as potentiation of GABA induced chloride current response relative to GABA; assay type: cell-based
[14] = molecular target: Gamma-aminobutyric acid receptor subunit alpha-3/beta-3 (Homo sapiens) (UniProt P28472+P34903); experiment: Positive allosteric modulation of recombinant human GABAA receptor alpha3beta3 expressed in Xenopus oocytes assessed as potentiation of GABA induced chloride current response relative to GABA; assay type: cell-based
[15] = molecular target: Gamma-aminobutyric acid receptor subunit alpha-5/beta-3 (Homo sapiens) (UniProt P28472+P31644); experiment: Positive allosteric modulation of recombinant human GABAA receptor alpha5beta3 expressed in Xenopus oocytes assessed as potentiation of GABA induced chloride current response relative to GABA; assay type: cell-based
[16] = molecular target: GABA-A receptor; alpha-1/beta-3/gamma-2 (Homo sapiens) (UniProt P14867+P18507+P28472); experiment: Positive allosteric modulation of recombinant human GABAA receptor alpha1beta3gamma2 expressed in Xenopus oocytes assessed as potentiation of GABA induced chloride current response relative to 10 uM GABA; assay type: cell-based
[17] = molecular target: GABA-A receptor; alpha-2/beta-3/gamma-2 (Homo sapiens) (UniProt P18507+P28472+P47869); experiment: Positive allosteric modulation of recombinant human GABAA receptor alpha2beta3gamma2 expressed in Xenopus oocytes assessed as potentiation of GABA induced chloride currents relative to 10 uM GABA; assay type: cell-based
[18] = molecular target: GABA-A receptor; alpha-3/beta-3/gamma-2 (Homo sapiens) (UniProt P18507+P28472+P34903); experiment: Positive allosteric modulation of recombinant human GABAA receptor alpha3beta3gamma2 expressed in Xenopus oocytes assessed as potentiation of GABA induced chloride currents relative to 10 uM GABA; assay type: cell-based
[19] = molecular target: GABA A receptor alpha-4/beta-3/gamma-2 (Homo sapiens, UniProt P18507+P28472+P48169); experiment: Positive allosteric modulation of recombinant human GABAA receptor alpha4beta3gamma2 expressed in Xenopus oocytes assessed as potentiation of GABA induced chloride currents relative to 10 uM GABA; assay type: cell-based
[20] = molecular target: GABA-A receptor; alpha-5/beta-3/gamma-2 (Homo sapiens) (UniProt P18507+P28472+P31644); experiment: Positive allosteric modulation of recombinant human GABAA receptor alpha5beta3gamma2 expressed in Xenopus oocytes assessed as potentiation of GABA induced chloride currents relative to 10 uM GABA; assay type: cell-based
[21] = molecular target: GABA-A receptor; alpha-6/beta-3/gamma-2 (Homo sapiens) (UniProt P18507+P28472+Q16445); experiment: Positive allosteric modulation of recombinant human GABAA receptor alpha6beta3gamma2 expressed in Xenopus oocytes assessed as potentiation of GABA induced chloride currents relative to 10 uM GABA; assay type: cell-based
[22] = molecular target: T4, Glycine receptor subunit alpha-1 (Homo sapiens, UniProt P23415); experiment: Positive allosteric modulation of human glycine alpha1 receptor expressed in HEK293T cells assessed as glycine-induced increase incurrent response after 18 to 24 hrs by membrane potential blue dye based FLIPR assay; assay type: cell-based
T4 sequence (P23415 whole entry): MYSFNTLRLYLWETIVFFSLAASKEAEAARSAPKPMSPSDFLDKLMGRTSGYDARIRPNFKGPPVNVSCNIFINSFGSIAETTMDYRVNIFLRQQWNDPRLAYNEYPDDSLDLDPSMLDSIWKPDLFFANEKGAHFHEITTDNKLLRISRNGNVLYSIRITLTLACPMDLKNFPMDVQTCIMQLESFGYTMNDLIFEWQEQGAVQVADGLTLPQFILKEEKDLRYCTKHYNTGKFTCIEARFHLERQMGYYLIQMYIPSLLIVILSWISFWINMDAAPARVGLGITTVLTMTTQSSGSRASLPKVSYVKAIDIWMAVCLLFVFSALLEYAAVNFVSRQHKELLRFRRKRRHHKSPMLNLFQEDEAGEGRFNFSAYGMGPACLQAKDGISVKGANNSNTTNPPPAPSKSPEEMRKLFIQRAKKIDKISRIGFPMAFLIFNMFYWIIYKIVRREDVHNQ

[23] = molecular target: Glycine receptor (alpha-1/beta) (Homo sapiens, UniProt P23415+P48167); experiment: Positive allosteric modulation of human glycine alpha1beta receptor expressed in HEK293T cells assessed as glycine-induced increase in current response after 18 to 24 hrs by membrane potential blue dye based FLIPR assay; assay type: cell-based
[24] = molecular target: T5, Glycine receptor alpha-3/beta (Homo sapiens, UniProt O75311+P48167); experiment: Positive allosteric modulation of human glycine alpha3beta receptor expressed in HEK293T cells assessed as glycine-induced increase in current response after 18 to 24 hrs by membrane potential blue dye based FLIPR assay; assay type: cell-based
[25] = molecular target: T5, Glycine receptor alpha-3/beta; experiment: Positive allosteric modulation of human glycine alpha3beta receptor expressed in HEK293T cells assessed as potentiation of glycine-induced increase in current response after 18 to 24 hrs by membrane potential blue dye based FLIPR assay relative to glycine; assay type: cell-based

T5 sequence (O75311 whole entry): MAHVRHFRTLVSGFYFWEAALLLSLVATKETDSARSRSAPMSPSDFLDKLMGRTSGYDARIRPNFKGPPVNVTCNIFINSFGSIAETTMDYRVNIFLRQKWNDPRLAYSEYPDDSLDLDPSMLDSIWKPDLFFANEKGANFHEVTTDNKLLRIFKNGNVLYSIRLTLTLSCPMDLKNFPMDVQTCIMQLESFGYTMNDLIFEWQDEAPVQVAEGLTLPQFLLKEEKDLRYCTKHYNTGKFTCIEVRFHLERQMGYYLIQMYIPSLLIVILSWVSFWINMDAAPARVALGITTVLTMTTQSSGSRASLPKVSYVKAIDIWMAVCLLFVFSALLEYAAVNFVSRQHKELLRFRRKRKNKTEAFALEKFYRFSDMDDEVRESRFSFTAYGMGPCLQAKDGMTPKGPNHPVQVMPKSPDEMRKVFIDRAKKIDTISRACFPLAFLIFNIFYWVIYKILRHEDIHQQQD
T5 sequence (P48167 whole entry): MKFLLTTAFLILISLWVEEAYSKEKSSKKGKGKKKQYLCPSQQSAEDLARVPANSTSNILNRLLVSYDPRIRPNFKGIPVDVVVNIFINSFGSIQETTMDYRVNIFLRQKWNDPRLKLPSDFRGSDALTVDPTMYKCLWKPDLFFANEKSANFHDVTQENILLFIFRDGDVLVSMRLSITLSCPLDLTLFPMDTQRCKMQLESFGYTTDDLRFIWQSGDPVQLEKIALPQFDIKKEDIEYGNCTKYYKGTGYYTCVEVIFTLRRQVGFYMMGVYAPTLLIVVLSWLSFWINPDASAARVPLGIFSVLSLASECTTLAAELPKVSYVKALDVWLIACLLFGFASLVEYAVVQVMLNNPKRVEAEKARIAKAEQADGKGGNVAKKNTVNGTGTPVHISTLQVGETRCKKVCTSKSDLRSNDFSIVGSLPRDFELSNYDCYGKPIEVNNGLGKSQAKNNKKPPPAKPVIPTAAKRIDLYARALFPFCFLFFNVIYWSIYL
Chain of Neuronal acetylcholine receptor subunit alpha-7 (Q05941 whole entry): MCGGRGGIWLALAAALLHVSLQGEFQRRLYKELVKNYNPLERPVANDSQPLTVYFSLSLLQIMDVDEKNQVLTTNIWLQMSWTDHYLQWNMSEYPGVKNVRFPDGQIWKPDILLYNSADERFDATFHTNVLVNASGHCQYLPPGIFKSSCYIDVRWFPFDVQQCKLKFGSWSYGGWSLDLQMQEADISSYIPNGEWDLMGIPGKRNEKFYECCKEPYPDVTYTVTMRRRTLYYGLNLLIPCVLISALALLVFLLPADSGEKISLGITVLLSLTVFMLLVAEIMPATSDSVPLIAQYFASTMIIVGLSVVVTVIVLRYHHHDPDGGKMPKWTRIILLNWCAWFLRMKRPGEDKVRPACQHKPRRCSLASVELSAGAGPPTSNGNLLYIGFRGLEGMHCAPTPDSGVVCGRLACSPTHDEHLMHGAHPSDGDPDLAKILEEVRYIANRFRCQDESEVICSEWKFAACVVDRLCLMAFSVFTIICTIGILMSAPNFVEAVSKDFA
Chain of Glycine receptor (Rattus norvegicus) (P07727 whole entry, looked up): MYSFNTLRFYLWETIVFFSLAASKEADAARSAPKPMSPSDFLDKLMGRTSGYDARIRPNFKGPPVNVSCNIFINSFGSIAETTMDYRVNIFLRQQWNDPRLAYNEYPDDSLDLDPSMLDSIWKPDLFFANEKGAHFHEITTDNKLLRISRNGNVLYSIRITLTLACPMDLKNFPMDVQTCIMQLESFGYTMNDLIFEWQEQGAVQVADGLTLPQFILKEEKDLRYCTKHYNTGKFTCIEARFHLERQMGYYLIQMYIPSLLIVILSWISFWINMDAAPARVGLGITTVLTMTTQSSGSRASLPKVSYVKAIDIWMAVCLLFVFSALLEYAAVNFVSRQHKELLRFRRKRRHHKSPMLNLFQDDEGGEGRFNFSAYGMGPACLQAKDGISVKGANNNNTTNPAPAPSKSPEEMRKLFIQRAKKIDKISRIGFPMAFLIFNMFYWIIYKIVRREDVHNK
Chain of Glycine receptor (Rattus norvegicus) (P20781 whole entry, looked up): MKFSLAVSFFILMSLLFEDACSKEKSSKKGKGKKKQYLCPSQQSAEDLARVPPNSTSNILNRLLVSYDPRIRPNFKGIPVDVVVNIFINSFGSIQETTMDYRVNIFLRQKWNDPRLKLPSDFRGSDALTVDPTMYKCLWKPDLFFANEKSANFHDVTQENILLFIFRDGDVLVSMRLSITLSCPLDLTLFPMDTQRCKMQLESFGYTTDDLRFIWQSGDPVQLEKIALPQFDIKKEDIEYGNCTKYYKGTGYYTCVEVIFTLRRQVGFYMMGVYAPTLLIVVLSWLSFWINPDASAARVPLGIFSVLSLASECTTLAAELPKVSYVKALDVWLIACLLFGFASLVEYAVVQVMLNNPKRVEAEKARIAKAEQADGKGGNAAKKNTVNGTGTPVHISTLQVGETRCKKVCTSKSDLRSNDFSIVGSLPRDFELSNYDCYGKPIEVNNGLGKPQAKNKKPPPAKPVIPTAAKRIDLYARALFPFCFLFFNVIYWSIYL
Chain of Glycine receptor (Rattus norvegicus) (P22771 whole entry, looked up): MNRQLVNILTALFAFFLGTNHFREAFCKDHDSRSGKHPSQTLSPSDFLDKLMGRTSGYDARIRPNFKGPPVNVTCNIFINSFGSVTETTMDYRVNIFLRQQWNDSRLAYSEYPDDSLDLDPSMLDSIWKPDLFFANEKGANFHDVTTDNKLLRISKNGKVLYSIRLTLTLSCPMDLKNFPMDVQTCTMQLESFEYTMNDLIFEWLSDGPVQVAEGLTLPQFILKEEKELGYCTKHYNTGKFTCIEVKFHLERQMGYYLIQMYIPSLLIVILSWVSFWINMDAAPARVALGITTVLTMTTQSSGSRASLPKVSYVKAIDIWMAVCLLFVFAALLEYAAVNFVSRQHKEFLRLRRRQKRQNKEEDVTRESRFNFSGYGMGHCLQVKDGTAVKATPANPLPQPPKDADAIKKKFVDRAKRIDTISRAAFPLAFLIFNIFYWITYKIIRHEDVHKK
Chain of Glycine receptor (Rattus norvegicus) (P24524 whole entry, looked up): as the sequence (O75311 whole entry) above, with V11L, D32N, M372T, F381L, M398V, T399V, P406A, P414A, Q461H counted along it
Chain of 5-hydroxytryptamine receptor 3A/3C (Q8WXA8 whole entry, one chain of several): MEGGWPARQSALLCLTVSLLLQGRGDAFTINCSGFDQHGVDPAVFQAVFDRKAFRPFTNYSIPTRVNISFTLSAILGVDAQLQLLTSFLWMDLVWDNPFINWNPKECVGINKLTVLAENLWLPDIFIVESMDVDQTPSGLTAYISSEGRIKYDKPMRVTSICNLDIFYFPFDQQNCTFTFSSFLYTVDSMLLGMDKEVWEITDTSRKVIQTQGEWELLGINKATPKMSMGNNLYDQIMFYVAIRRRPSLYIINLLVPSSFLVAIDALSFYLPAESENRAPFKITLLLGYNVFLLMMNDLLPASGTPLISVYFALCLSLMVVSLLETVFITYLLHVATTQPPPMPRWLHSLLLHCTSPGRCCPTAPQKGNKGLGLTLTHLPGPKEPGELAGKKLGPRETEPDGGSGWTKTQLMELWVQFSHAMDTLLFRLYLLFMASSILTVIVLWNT
Chain of 5-hydroxytryptamine receptor 3A/3E (A5X5Y0 whole entry, one chain of several): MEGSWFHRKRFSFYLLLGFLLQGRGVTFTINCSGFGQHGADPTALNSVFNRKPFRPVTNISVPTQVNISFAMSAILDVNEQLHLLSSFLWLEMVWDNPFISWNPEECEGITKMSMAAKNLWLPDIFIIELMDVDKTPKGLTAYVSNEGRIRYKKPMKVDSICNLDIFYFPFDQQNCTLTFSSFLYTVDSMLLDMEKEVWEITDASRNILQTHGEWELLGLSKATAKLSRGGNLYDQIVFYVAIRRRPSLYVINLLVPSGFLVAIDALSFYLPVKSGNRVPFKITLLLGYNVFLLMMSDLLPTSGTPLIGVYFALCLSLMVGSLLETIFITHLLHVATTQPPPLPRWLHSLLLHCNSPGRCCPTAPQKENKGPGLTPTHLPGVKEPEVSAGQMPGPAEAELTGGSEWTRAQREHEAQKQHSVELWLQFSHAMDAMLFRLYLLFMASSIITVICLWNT
Chain of Glycine receptor (alpha-1/beta) (P48167 whole entry, one chain of several): as the sequence (P48167 whole entry) above

SMILES: CN1[C@@H]2CC[C@H]1C[C@@H](NC(=O)c1nn(C)c3ccccc13)C2
fold change (FC) [2]: 1.73

SMILES: N=C(N)NC(=N)Nc1cccc(Cl)c1
EC50 [3]: 3800 nM
EC50 [4]: 2800 nM

SMILES: Clc1ccccc1CN[C@@H]1CN2CCC1CC2
fold change (FC) [5]: 3

SMILES: O=C(N[C@H]1CN2CCC1CC2)c1ccc2ncccc2c1
IC50 [10]: 150 nM
IC50 [11]: 10000 nM

SMILES: CN1C(=O)[C@@H]2CN(S(=O)(=O)c3ccc4occc4c3)C[C@@H]2c2cnccc21
EC50 [22]: 327 nM
EC50 [23]: 171 nM
EC50 [24]: 330 nM
fold change (FC) [25]: 16

The next lines start with the values.

Kb [1]: 39.8 nM
SMILES: COc1nc2ccccc2nc1C(=O)Nc1nc2ccccc2s1

IC50 [6]: 620 nM
IC50 [7]: 430 nM
IC50 [8]: 840 nM
IC50 [9]: 710 nM
SMILES: c1ccc2c(CSc3[nH]cnc4ncnc3-4)cccc2c1

fold change (FC) [12]: 1.4
fold change (FC) [13]: 1.8
fold change (FC) [14]: 1.4
fold change (FC) [15]: 1.4
fold change (FC) [16]: 2.6
fold change (FC) [17]: 2.1
fold change (FC) [18]: 2.9
fold change (FC) [19]: 1.4
fold change (FC) [20]: 1.4
fold change (FC) [21]: 2.9
SMILES: O=C1C=C[C@H]([C@H]2c3cccc([N+](=O)[O-])c3C=CN2C(=O)OCc2ccccc2)O1
